Experimental data reported in the NIST ThermoML archive (doi:10.1016/j.jct.2015.12.005).
± gives the expanded uncertainty stated by the source.

Experiments:
[1] = Molar enthalpy of transition or fusion; details: Adiabatic calorimetry
[2] = molar heat capacity at saturation pressure

c1ccc2c(c1)CCC2 [indane]
[1]
Details | Molar enthalpy of transition or fusion [kcal/mol]
Crystal 1 | 2.044 ± 0.00263
Crystal 2 | 0.0363 ± 0.00043

molar heat capacity [J/K/mol], [2]
Details | Crystal 1, Vacuum adiabatic calorimetry | Crystal 2, Vacuum adiabatic calorimetry
5 K | – | 0.291 ± 0.017
5.31 K | – | 0.3492 ± 0.017
6.26 K | – | 0.6236 ± 0.025
7.189 K | – | 0.9811 ± 0.033
8.165 K | – | 1.463 ± 0.05
9.174 K | – | 2.12 ± 0.067
10 K | – | 2.735 ± 0.033
10.22 K | – | 2.918 ± 0.025
11.36 K | – | 3.891 ± 0.033
12.63 K | – | 5.097 ± 0.042
14.04 K | – | 6.61 ± 0.05
15.6 K | – | 8.364 ± 0.067
17.35 K | – | 10.43 ± 0.075
19.29 K | – | 12.76 ± 0.091
20 K | – | 13.61 ± 0.091
21.45 K | – | 15.35 ± 0.1
23.86 K | – | 18.19 ± 0.12
26.55 K | – | 21.27 ± 0.12
29.53 K | – | 24.47 ± 0.14
30 K | – | 24.96 ± 0.14
32.82 K | – | 27.82 ± 0.075
36.45 K | – | 31.27 ± 0.083
40 K | – | 34.44 ± 0.083
40.47 K | – | 34.84 ± 0.083
44.94 K | – | 38.64 ± 0.091
49.87 K | – | 42.67 ± 0.1
50 K | – | 42.77 ± 0.1
52.71 K | – | 44.96 ± 0.1
55.33 K | – | 47.14 ± 0.11
57.68 K | – | 49.16 ± 0.11
60 K | – | 51.24 ± 0.12
62 K | – | 53.22 ± 0.12
62.18 K | – | 53.45 ± 0.12
62.48 K | – | 53.74 ± 0.12
63.41 K | – | 54.75 ± 0.12
64 K | – | 55.47 ± 0.12
66 K | – | 57.83 ± 0.12
67.11 K | – | 59.51 ± 0.12
68 K | – | 60.76 ± 0.13
70 K | – | 64.04 ± 0.14
70.7 K | – | 67.01 ± 0.14
70.76 K | – | 67.17 ± 0.14
72 K | – | 67.68 ± 0.15
72.08 K | – | 72.89 ± 0.17
72.27 K | – | 74.46 ± 0.17
72.75 K | – | 77.96 ± 0.18
73.08 K | – | 82.15 ± 0.25
73.38 K | – | 89.8 ± 0.33
73.83 K | 57.49 ± 0.12 | 71.43 ± 0.15
74 K | 57.55 ± 0.12 | –
74.14 K | 63.18 ± 0.16 | –
74.52 K | 59.93 ± 0.14 | –
74.89 K | 59.45 ± 0.12 | –
76 K | 58.28 ± 0.12 | –
76.02 K | 59.19 ± 0.12 | –
77.68 K | 59.3 ± 0.12 | –
78 K | 59.01 ± 0.12 | –
79.98 K | 59.88 ± 0.12 | –
80 K | 59.74 ± 0.12 | –
82.01 K | 60.53 ± 0.13 | –
82.05 K | 60.55 ± 0.13 | –
82.97 K | 60.84 ± 0.13 | –
83.17 K | 60.91 ± 0.13 | –
90 K | 63.39 ± 0.21 | –
91.46 K | 63.9 ± 0.21 | –
100 K | 67.07 ± 0.21 | –
100.48 K | 67.26 ± 0.21 | –
110.07 K | 70.8 ± 0.21 | –
119.85 K | 74.38 ± 0.22 | –
120 K | 74.45 ± 0.22 | –
129.73 K | 78.16 ± 0.22 | –
138.66 K | 81.54 ± 0.22 | –
139.61 K | 81.94 ± 0.22 | –
140 K | 82.06 ± 0.22 | –
148.52 K | 85.42 ± 0.22 | –
158.5 K | 89.5 ± 0.22 | –
160 K | 90.14 ± 0.22 | –
168.63 K | 93.87 ± 0.22 | –
178.81 K | 98.43 ± 0.23 | –
180 K | 99 ± 0.23 | –
184.22 K | 100.9 ± 0.23 | –
189.01 K | 103.32 ± 0.24 | –
194.75 K | 106.22 ± 0.24 | –
199.29 K | 108.5 ± 0.24 | –
200 K | 108.89 ± 0.24 | –
205.19 K | 111.62 ± 0.25 | –
209.54 K | 113.96 ± 0.25 | –
212.42 K | 115.59 ± 0.25 | –
214.32 K | 116.35 ± 0.25 | –
220 K | 119.51 ± 0.26 | –
221.79 K | 120.47 ± 0.26 | –

[2], Liquid
Details | molar heat capacity [J/K/mol]
221.79 K, Vacuum adiabatic calorimetry | 163.91 ± 0.31
228.22 K, Vacuum adiabatic calorimetry | 165.72 ± 0.31
228.34 K, Vacuum adiabatic calorimetry | 165.76 ± 0.31
229.69 K, Vacuum adiabatic calorimetry | 166.13 ± 0.31
229.78 K, Vacuum adiabatic calorimetry | 166.24 ± 0.31
230 K, Vacuum adiabatic calorimetry | 166.22 ± 0.31
236.45 K, Vacuum adiabatic calorimetry | 168.04 ± 0.31
238.81 K, Vacuum adiabatic calorimetry | 168.76 ± 0.31
240 K, Vacuum adiabatic calorimetry | 169.13 ± 0.31
250 K, Vacuum adiabatic calorimetry | 172.31 ± 0.32
250.13 K, Vacuum adiabatic calorimetry | 172.35 ± 0.32
260 K, Vacuum adiabatic calorimetry | 175.75 ± 0.32
262.1 K, Vacuum adiabatic calorimetry | 176.48 ± 0.32
262.28 K, Vacuum adiabatic calorimetry | 176.54 ± 0.32
270 K, Vacuum adiabatic calorimetry | 179.48 ± 0.32
274.49 K, Vacuum adiabatic calorimetry | 181.2 ± 0.32
275.32 K, Vacuum adiabatic calorimetry | 181.5 ± 0.32
280 K, Vacuum adiabatic calorimetry | 183.04 ± 0.32
286.77 K, Vacuum adiabatic calorimetry | 185.35 ± 0.33
288.6 K, Vacuum adiabatic calorimetry | 185.93 ± 0.33
290 K, Vacuum adiabatic calorimetry | 186.46 ± 0.33
297.89 K, Vacuum adiabatic calorimetry | 189.38 ± 0.33
298.15 K, Vacuum adiabatic calorimetry | 189.48 ± 0.33
299.11 K, Vacuum adiabatic calorimetry | 189.82 ± 0.33
300 K, Vacuum adiabatic calorimetry | 190.18 ± 0.33
301.9 K, Vacuum adiabatic calorimetry | 190.91 ± 0.33
310 K, Vacuum adiabatic calorimetry | 194.12 ± 0.34
310.2 K, Vacuum adiabatic calorimetry | 194.19 ± 0.34
311.46 K, Vacuum adiabatic calorimetry | 194.67 ± 0.34
320 K, Vacuum adiabatic calorimetry | 198.07 ± 0.34
322.46 K, Vacuum adiabatic calorimetry | 199.08 ± 0.35
330 K, Vacuum adiabatic calorimetry | 202.15 ± 0.35
333.38 K, Vacuum adiabatic calorimetry | 203.54 ± 0.35
334.63 K, Vacuum adiabatic calorimetry | 204.04 ± 0.35
340 K, Vacuum adiabatic calorimetry | 206.3 ± 0.36
347.49 K, Vacuum adiabatic calorimetry | 209.45 ± 0.36
350 K, Vacuum adiabatic calorimetry | 210.48 ± 0.36
360 K, Vacuum adiabatic calorimetry | 214.61 ± 0.37
360.87 K, Vacuum adiabatic calorimetry | 214.96 ± 0.37
370 K, Vacuum adiabatic calorimetry | 218.8 ± 0.37
374.71 K, Vacuum adiabatic calorimetry | 220.8 ± 0.37
380 K, Vacuum adiabatic calorimetry | 223.03 ± 0.37
388.61 K, Vacuum adiabatic calorimetry | 226.66 ± 0.37
390 K, Vacuum adiabatic calorimetry | 227.25 ± 0.37
400 K, Vacuum adiabatic calorimetry | 231.47 ± 0.38
402.42 K, Vacuum adiabatic calorimetry | 232.49 ± 0.38
409.24 K, Vacuum adiabatic calorimetry | 235.36 ± 0.39
410 K, Vacuum adiabatic calorimetry | 235.68 ± 0.39
415.99 K, Vacuum adiabatic calorimetry | 238.21 ± 0.39
420 K, Vacuum adiabatic calorimetry | 239.88 ± 0.39
426.54 K, Vacuum adiabatic calorimetry | 242.6 ± 0.4
428.9 K, Vacuum adiabatic calorimetry | 243.53 ± 0.4
430 K, Vacuum adiabatic calorimetry | 244.05 ± 0.4
439.86 K, Vacuum adiabatic calorimetry | 248.28 ± 0.4
440 K, Vacuum adiabatic calorimetry | 248.4 ± 0.4
450 K, Small sample (50 mg) DSC | 253.17 ± 3.9
460 K, Small sample (50 mg) DSC | 258.04 ± 4
470 K, Small sample (50 mg) DSC | 262.7 ± 4.1
480 K, Small sample (50 mg) DSC | 267.2 ± 4.1
490 K, Small sample (50 mg) DSC | 271.71 ± 4.2
500 K, Small sample (50 mg) DSC | 276.21 ± 4.3
510 K, Small sample (50 mg) DSC | 280.72 ± 4.3
520 K, Small sample (50 mg) DSC | 285.23 ± 4.4
530 K, Small sample (50 mg) DSC | 289.72 ± 4.5
540 K, Small sample (50 mg) DSC | 294.22 ± 4.6
550 K, Small sample (50 mg) DSC | 298.7 ± 4.7
560 K, Small sample (50 mg) DSC | 303.18 ± 4.9
570 K, Small sample (50 mg) DSC | 307.65 ± 5
580 K, Small sample (50 mg) DSC | 312.12 ± 5.2
590 K, Small sample (50 mg) DSC | 316.59 ± 5.4
600 K, Small sample (50 mg) DSC | 321.05 ± 5.6
